Laboratory results reported in patent EP2387573B1, “6-PHENYL-1H-IMIDAZO[4,5-C]PYRIDINE-4-CARBONITRILE DERIVATIVES AS CATHEPSIN S AND/OR CATHEPSIN K INHIBITORS” (Organon BioSciences Nederland B.V., priority 2009, dated 2010).
Counter-ions that a name gives are not always drawn.

Assays:
Cathepsin S [1] = target: T1, Cathepsin S (Homo sapiens, UniProt P25774); experiment: Cathepsin S assay procedure (inhibition of recombinant enzyme, fluorogenic substrate Z-Val-Val-Arg-AMC); type: biochemical; settings: pH5.5, fluorescence at 20 minutes; read-out: pIC50 (negative logarithm of the IC50 concentration) for inhibition of human cathepsin S (converted)
Protocol: EXAMPLE 32 Cathepsin S assay procedure
25µl of a 2mg/l solution of activated recombinant human cathepsin S, in assay buffer, is then added to the well, yielding a final inhibitor concentration of 10µM.
Enzyme activity is determined by measuring the fluorescence of the liberated aminomethylcoumarin at […] using 390nm excitation, at 20 minutes. Percentage enzyme activity is calculated by comparison of this activity to that of a solution containing no inhibitor. Compounds are subsequently subjected to a dose response curve analysis in order to determine IC50 values for active compounds (where IC50 is the concentration of test compound causing 50 % inhibition of the enzymatic activity). Compounds of the invention typically have a pIC50 (negative logarithm of the IC50 concentration) for inhibition of human cathepsin S of more than 6. Most compounds of the invention have a pIC50 of more than 7, such as exemplified by the compounds of examples 1a, 1b, 2a, 7d, 12a, 14a, 14b, 14c, 14d, 14e, 14f, 14g, 14h, 14i, 17, 18.

Cathepsin S [2] = target: T1, Cathepsin S; experiment: Cell based lip10 assay (Lip10 accumulation, anti-CD74 ELISA); set-up: endogenous in cells; host or cells: Jiyoye human B lymphoblastoid cells; settings: Human B lymphoblastoid cells (Jiyoye), 24 hours, relative to E64d / LHVS-treated cells; read-out: pEC50 (negative logarithm of the EC50 concentration) (converted)
Source text: In some cases, these cell based activities are up to 100 fold greater than previously disclosed compounds in WO 2007/080191.
EXAMPLE 34 Cathepsin S assay
During normal antigen presentation, Lip10 is proteolytically degraded to enable loading of a peptide fragment and subsequent MHC-II presentation on the surface of antigen presenting cells. The cleavage process is mediated by Cathepsin S. Thus, the Lip10 assay is an in vitro measure of a compound's ability to block cathepsin S and by extension antigen presentation. A compound that causes the accumulation of Lip10 at low concentration would be expected to block presentation of antigens.
Cell based lip10 assay procedure
Human B lymphoblastoid cells (Jiyoye) were cultured in RPMI 1640 medium at a density of 500 000 cells/ml in 24-well plates. Cells were treated with a concentration range of compounds (0.001-10µM) and vehicle alone (DMSO, 0.1% v/v). In order to generate positive control treatments separate wells were treated with 10µM E64d & 0.1µM LHVS. The cells were incubated at 37°C in a humidified incubator containing 5% CO2. After 24 hours the plates were centrifuged at 150 x g for five minutes and the media removed. Cells were lysed by adding 65µl of ice-cold phosphate buffered saline (PBS) containing 1% (v/v) Triton X-100 and protease inhibitors and incubated on ice for 20 minutes. The samples were centrifuged at 18 000 x g for 15 minutes at 4°C and the resulting supernatants collected and stored at -80°C until required. After measurement of protein concentration using a micro-BCA protein assay all samples were diluted to 10µg protein/ml and 50µl of each sample were coated overnight at 4°C onto wells of high protein-binding 96-well plates. The wells were washed once with PBS (200µl/well) and then incubated at room temperature for 2 hours with 10µg/ml mouse anti-CD74 Pin.1 monoclonal antibody (50µl/well) in PBS containing 0.05% (v/v) Tween-20 (PBS-T) and 2% (w/v) BSA (PBS-T/BSA). Unbound antibody was then removed by washing three times with PBS-T and followed by the addition of rabbit anti-mouse IgG antibody conjugated to horseradish peroxidase. After washing five times with PBS-T 100µl of tetramethylbenzidine substrate was added to each well and incubated for 10 minutes on a plate shaker. The reaction was stopped by the addition of 100µl of 1 M hydrochloric acid. Antibody binding was quantified by measuring the optical density (OD, 450nm) using a Molecular Devices Spectramax Plus. The OD of vehicle-only treated cells was removed from all values and the data was expressed as a percentage of the OD generated from the mean E64d / LHVS-treated cells. The potency of compounds (EC50) was measured by calculating the concentration of inhibitor required to generate 50% inhibition relative to E64d / LHVS-treated cells.

T1 sequence (P25774 115-331): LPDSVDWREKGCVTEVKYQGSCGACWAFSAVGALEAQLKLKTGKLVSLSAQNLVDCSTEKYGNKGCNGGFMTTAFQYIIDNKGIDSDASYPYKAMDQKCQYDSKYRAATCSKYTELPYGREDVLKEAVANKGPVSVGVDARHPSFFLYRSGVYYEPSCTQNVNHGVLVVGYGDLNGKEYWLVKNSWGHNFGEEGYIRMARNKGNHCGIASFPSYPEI

Row | Compound | IC50 (Cathepsin S [1]) | EC50 (Cathepsin S [2])
1 | CC(=O)N(C)CCCOc1ccc(-c2cc3c(ncn3C)c(C#N)n2)cc1C(F)(F)F [Example 2a, 6-{4-[3-(N-acetyl-N-methylamino)propoxy]-3-(trifluoromethyl)-phenyl}-1-methyl-1H-imidazo[4,5-c]pyridine-4-carbonitrile] | < 100 nM | 
2 | Cn1cnc2c(C#N)nc(-c3ccc(OCCCNS(C)(=O)=O)c(C(F)(F)F)c3)cc21 [Example 1a, N-(3-(4-(4-cyano-1-methyl-1H-imidazo[4,5-c]pyridin-6-yl)-2-(trifluoromethyl)phenoxy)propyl)methanesulfonamide] | < 100 nM | 
3 | Cn1cnc2c(C#N)nc(-c3ccc(OCCN4C=NC(C)(C)C4=O)c(C(F)(F)F)c3)cc21 [Example 18, 6-(4-(2-(4,4-dimethyl-5-oxo-4,5-dihydro-1H-imidazol-1-yl)ethoxy)-3-(trifluoromethyl)phenyl)-1-methyl-1H-imidazo[4,5-c]pyridine-4-carbonitrile TFA salt] | < 100 nM | 
4 | CCNc1cc(COc2ccc(-c3cc4c(ncn4C)c(C#N)n3)cc2C(F)(F)F)ccn1 [Example 12b, 1-Methyl-6-{4-[(2-(N-ethylamino)-pyridin-4-yl)-methoxy]-3-(trifluoromethyl)-phenyl}-1H-imidazo[4,5-c]pyridine-4-carbonitrile] |  | < 100 nM
5 | CC(=O)NCCCOc1ccc(-c2cc3c(ncn3C)c(C#N)n2)cc1C(F)(F)F [Example 1b, 6-[4-(3-acetylaminopropoxy)-3-(trifluoromethyl)-phenyl]-1-methyl-1H-imidazo[4,5-c]pyridine-4-carbonitrile] | < 100 nM | 
6 | CC(=O)N(C)CCOc1ccc(-c2cc3c(ncn3C)c(C#N)n2)cc1C(F)(F)F [Example 7d, 1-methyl-6-(4-(2-(N-acetyl-N-methylamino)ethoxy)-3-(trifluoromethyl)phenyl)-1H-imidazo[4,5-c]pyridine-4-carbonitrile] | < 100 nM | 
7 | CNc1cc(COc2ccc(-c3cc4c(ncn4C)c(C#N)n3)cc2C(F)(F)F)ccn1 [Example 12c, 1-Methyl-6-{4-[(2-(N-methylamino)-pyridin-4-yl)-methoxy]-3-(trifluoromethyl)-phenyl}-1H-imidazo[4,5-c]pyridine-4-carbonitrile] |  | < 100 nM
8 | CCN(C)c1cc(COc2ccc(-c3cc4c(ncn4C)c(C#N)n3)cc2C(F)(F)F)ccn1 [Example 12a, 1-Methyl-6-{4-[(2-(N-ethyl-N-methylamino)-pyridin-4-yl)-methoxy]-3-(trifluoromethyl)-phenyl}-1H-imidazo[4,5-c]pyridine-4-carbonitrile Hydrocloride] | < 100 nM | < 100 nM

The remaining lines, values ahead:

Row | IC50 (Cathepsin S [1]) | EC50 (Cathepsin S [2]) | Compound
9 | < 100 nM |  | Cn1cnc2c(C#N)nc(-c3ccc(OCCC4CCN(Cc5nccs5)CC4)c(C(F)(F)F)c3)cc21 [Example 14i, 1-methyl-6-(4-(2-(1-(thiazol-2-ylmethyl)piperidin-4-yl)ethoxy)-3-(trifluoromethyl)-phenyl)-1H-imidazo[4,5-c]pyridine-4-carbonitrile]
10 | < 100 nM |  | Cn1cnc2c(C#N)nc(-c3ccc(OCCC4CCN(CC(=O)N5CCCC5)CC4)c(C(F)(F)F)c3)cc21 [Example 14e, 6-(4-(2-(1-(2-oxo-2-(pyrrolidin-1-yl)ethyl)piperidin-4-yl)ethoxy)-3-(trifluoromethyl)phenyl)-1-methyl-1H-imidazo[4,5-c]pyridine-4-carbonitrile]
11 | < 100 nM | < 100 nM | Cc1cc(CN2CCC(CCOc3ccc(-c4cc5c(ncn5C)c(C#N)n4)cc3C(F)(F)F)CC2)no1 [Example 14b, 1-methyl-6-(4-(2-(1-((5-methylisoxazol-3-yl)methyl)piperidin-4-yl)ethoxy)-3-(trifluoromethyl)phenyl)-1H-imidazo[4,5-c]pyridine-4-carbonitrile]
12 | < 100 nM |  | Cn1cnc2c(C#N)nc(-c3ccc(OCCC4CCN(CC(F)F)CC4)c(C(F)(F)F)c3)cc21 [Example 14g, 6-(4-(2-(1-(2,2-difluoroethyl)piperidin-4-yl)ethoxy)-3-(trifluoromethyl)phenyl)-1-methyl-1H-imidazo[4,5-c]pyridine-4-carbonitrile]
13 | < 100 nM | < 100 nM | Cn1cnc2c(C#N)nc(-c3ccc(OCCC4CCN(Cc5ncco5)CC4)c(C(F)(F)F)c3)cc21 [Example 14a, 1-methyl-6-(4-(2-(1-(oxazol-2-ylmethyl)piperidin-4-yl)ethoxy)-3-(trifluoromethyl)phenyl)-1H-imidazo[4,5-c]pyridine-4-carbonitrile hydrochloride]
14 | < 100 nM | < 100 nM | CN(C)C(=O)CN1CCC(CCOc2ccc(-c3cc4c(ncn4C)c(C#N)n3)cc2C(F)(F)F)CC1 [Example 14d, 6-(4-(2-(1-(2-dimethylamino-2-oxo-ethyl)piperidin-4-yl)ethoxy)-3-(trifluoromethyl)phenyl)-1-methyl-1H-imidazo[4,5-c]pyridine-4-carbonitrile]
15 | < 100 nM |  | Cn1cnc2c(C#N)nc(-c3ccc(OCCC4CCN(CCF)CC4)c(C(F)(F)F)c3)cc21 [Example 14f, 6-(4-(2-(1-(2-fluoroethyl)piperidin-4-yl)ethoxy)-3-(trifluoromethyl)phenyl)-1-methyl-1H-imidazo[4,5-c]pyridine-4-carbonitrile]
16 | < 100 nM | < 100 nM | Cc1noc(C)c1CN1CCC(CCOc2ccc(-c3cc4c(ncn4C)c(C#N)n3)cc2C(F)(F)F)CC1 [Example 14c, 6-(4-(2-(1-((3,5-dimethylisoxazol-4-yl)methyl)piperidin-4-yl)ethoxy)-3-(trifluoromethyl)phenyl)-1-methyl-1H-imidazo[4,5-c]pyridine-4-carbonitrile]
17 | < 100 nM |  | COCCN1CCC(CCOc2ccc(-c3cc4c(ncn4C)c(C#N)n3)cc2C(F)(F)F)CC1 [Example 14h, 6-(4-(2-(1-(2-methoxyethyl)piperidin-4-yl)ethoxy)-3-(trifluoromethyl)phenyl)-1-methyl-1H-imidazo[4,5-c]pyridine-4-carbonitrile]
